Laboratory results taken from patent US9012397B2 (priority 2011, dated 2015).
Where two headings read alike, the source gives them in different places.

How the values were obtained:
Assay type in all cases: in vivo, human
Herpes zoster = conditions: person, lesions with skin edema on mid back; 50 μg/gr cream, applied 4-5 times
Protocol: (§1) The method of the invention has been carried out with respect to a number of skin disorders. The patients were treated with one of two peptides, each at a concentration of 50 μg/gr cream (unless otherwise indicated):
(§2) The cream was manufactured by Amiga LTD, Israel, and contains the following components:
1. A person was diagnosed with Herpes zoster (shingles), which appeared as a painful, circumferential rash in the abdominal area. The patient had been on antibiotics, with no improvement.
2. A person was diagnosed with Herpes zoster, which appeared as painful lesions with skin edema on the mid back area, appearing several times a year. […] Decrease in the skin rash and the degree of the sore and swelling and a shortening of the time of recovery (healing).

Herpes simplex = system: Herpes simplex
Protocol: as §1, §2
5. A person suffered for many years from Herpes simplex on the neck, with no relief from commercial remedies. ZEP3 was applied topically once a day to the lesions. • Results: relief in itching and skin rash within 10-20 min.
6. person two was diagnosed with Herpes simplex.
7. person one was diagnosed with Herpes simplex.
8. person four suffered from Herpes simplex from childhood.
9. A person suffered from Herpes simplex lesions on the lips and face. […] 1-2 applications cause the lesions to disappear.
10. A person suffered from Herpes simplex on the lips, mainly when under pressure. […] The blisters disappeared after 24 hours.
11. A person suffered from Herpes simplex on the lips. ZEP3 (500 μg/gr cream) was topically applied several times during the day on the wound. • Results: the person felt relief after several minutes. The itching and redness lessened immediately and the wound disappeared after 36 hours.
12. 7 subjects suffering from Herpes simplex were treated with ZEP3.
13. A person suffered from Herpes simplex lesions on the lips.
14. A person has a festering Herpes simplex lesion. Generally, 10 days are required for recuperation.
15. A person suffered intermittingly from Herpes simplex on the lips, with blisters.

flea bites = system: flea bites
Protocol: as §1, §2
1. person two was bitten by fleas on various occasions, resulting in an itching sensation. […] The ointment was reapplied after 6 hours.
2. person one who is very sensitive to flea bites was bitten by fleas, resulting in an itching sensation. […] The ointment should be reapplied after 12 hours.

bee stings = system: bee stings
Protocol: as §1, §2
3. A person was stung by a bee.
4. person four was stung by bees on both hands.
5. person three was stung by bees on both hands.

mosquito bites = conditions: two males and four females, 30-57 years old; (500 μg/gr cream) as needed
Protocol: as §1, §2
8. males and four females suffered from mosquito bites. […]
9. 3 subjects suffering from mosquito bites were treated with ZEP3.

burns = system: burns
Protocol: as §1, §2
1. A person was lightly burned on the back of the hand which touched a very hot object. ZEP4 was immediately applied to the burn site. • Results: the burn mark disappeared within 1 hour. No additional treatments were necessary.
2. A person was severely burned by boiling water on the palm of the hand. […] At the end of 2 weeks there was no sign of the burn, nor thereafter.
3. person two was lightly burned on their finger from boiling oil. […] No further treatments were necessary.
5. A person was burnt on their hand from an oven. […] The burn took on a light brown color.
6. 4 light burn cases, three from touching a hot surface and one from a chemical substance in a laboratory, were treated with ZEP3.
8. person three with irritated skin on the hand due to the rubbing of a watch band. The irritated skin came into contact with a chemical substance (used as a disinfectant). A severe redness developed similar to a burn, and a strong itching feeing. […] D. Oral Cavity

radiation burns = system: radiation burns
Protocol: as §1, §2
4. A person with breast cancer received radiation treatment. The person suffered from radiation burns in a large skin area with blisters and open wounds. ZEP4 was applied directly to the wounds over a period of 12 days, 1-2 times per day. • Results: an immediate (˜1 minute) ease in the itching and burning sensation.
7. person two with breast cancer after mastectomy received radiation treatment. The person suffered from severe radiation burns.

rash = system: rash
Protocol: as §1, §2
1. A rash appeared on the wrist of person two, apparently as an allergic response to a watch band. Large red spots appeared around the wrist.
2. A rash appeared in the underarm area of a person, apparently due to sweat and rubbing of the bra strap. […] F. Psoriasis

psoriasis = conditions: person
Protocol: as §1, §2
1. A person suffered from intermittent psoriasis on their head over many years. […] The patient believes that the frequency of the outbreaks has been reduced.
2. A person suffered from psoriasis on the hands. […] The patient believes that a 20% improvement has occurred over 2 weeks.
3. A person suffered from psoriasis in the anus.
4. A person suffered from extensive psoriasis at various locations. ZEP3 (500 μg/gr cream) was applied to the sores as needed. • Results: the itching ceased within 12 hours.
5. A person suffered from chronic psoriasis on the elbow.
6. A person suffered from severe psoriasis at various locations. They regularly went for treatments to the Dead Sea in Israel.

itching = conditions: person
Protocol: as §1, §2
1. A person suffered from a strong itching sensation on the skin all over the body for no apparent reason.
2. A person suffered from a red rash and itching sensation on their breast. ZEP4 (500 μg/gr cream) was applied twice in a period of 2 hours. • Results: relief from itching within 10 minutes.
3. A person suffered from a strong itching sensation in the lower limbs which sometimes spread to the abdomen and back. […] I. Skin Infection

skin infection = conditions: person two, wrist infection, allergic reaction to watch band; 50 μg/gr cream several times a day
Protocol: as §1, §2
1. person two suffered from an infection on the wrist of the left hand, apparently an allergic reaction to a watch band. Large spots appeared around the wrist accompanied by redness.
2. person three suffered from an infection on the wrist of the left hand, apparently an allergic reaction to a watch band. Large spots appeared around the wrist accompanied by redness and itching.
3. 2 cases of infected skin wounds.

[1] = person one, 50 μg/gr cream several times
[2] = person two, 50 μg/gr cream several times
[3] = person, lips, 50 μg/gr cream several times a day at onset of pricking sensation
[4] = person, severe boiling water burn on palm, 50 μg/gr cream immediately and every day for 2 weeks
[5] = person, breast cancer radiation burns with blisters and open wounds, 50 μg/gr cream 1-2 times per day for 12 days
[6] = red rash and itching on breast, 500 μg/gr cream twice in 2 hours

Which results are given for pGLU-ASN-TRP-THR [ZEP4]?
clinical outcome (Herpes zoster): reduced skin edema and an increase in the intervals between attacks. Decrease in the skin rash and the degree of the sore and swelling and a shortening of the time of recovery (healing); clinical outcome as compared to treatment with Zovirax® (Herpes simplex; person four, 50 μg/gr cream several times): Rapid drying of the lesion, shrinking of swelling and swift conclusion of the outbreak; clinical outcome (Herpes simplex; [1]): rapid drying of the lesion, as well as shortened scab formation; time to reduction in the stinging/itching feeling (Herpes simplex; [1]): 10 to 20 min; clinical outcome (Herpes simplex; [2]): the development of the lesion was stopped, scab formation began and the stinging/itching feeling disappeared; scab formation as compared to treatment with Zovirax® (Herpes simplex; [2]): shortened; clinical outcome (Herpes simplex; [3]): immediate reduction in the pricking sensation; time until blisters disappeared (Herpes simplex; [3]): 24 h; clinical outcome (Herpes simplex; person, lips, 200 μg/gr cream at onset of pricking sensation or lesions): immediate relief; the disease did not develop further; clinical outcome (flea bites; person one very sensitive to flea bites, 50 μg/gr cream): almost immediate cessation of the itching sensation; clinical outcome (flea bites; person two, 50 μg/gr cream several times to bite location): immediate cessation of the itching sensation; clinical outcome (bee stings; person four, both hands stung, 1000 μg/gr cream once to one hand, about 10 minutes after sting): the swelling shrunk and the redness decreased to an identical degree on each hand; clinical outcome (bee stings; person three, both hands stung, 1000 μg/gr cream once to one hand, about 10 minutes after sting): the swelling shrunk and the redness decreased to an identical degree on each hand; clinical outcome (bee stings; person, 50 μg/gr cream, one application 24 hours after the sting): immediate reduction in the redness, swelling and pain; clinical outcome (mosquito bites): an immediate relief from the itching sensation was felt; clinical outcome (burns; person three, irritated skin on hand contacted a disinfectant, burn-like redness and itching, ZEP4 and ZEP3 each 500 μg/gr cream): immediate relief from the redness and itching; clinical outcome (burns; person two, light burn on finger from boiling oil, 50 μg/gr cream applied immediately): the swelling went down until it completely disappeared; clinical outcome (burns; person, hand burnt from an oven, 50 μg/gr cream applied immediately): the pain and redness immediately subsided; time until burn mark disappeared (burns; person, light burn on back of hand from hot object, 50 μg/gr cream applied immediately): ≤ 1 h; clinical outcome (burns; [4]): blisters began to appear and then shortly disappeared; time until no sign of the burn (burns; [4]): 2 weeks; clinical outcome (radiation burns; person two after mastectomy, severe radiation burns, 500 μg/gr cream several times per day): felt immediate relief; clinical outcome (radiation burns; [5]): The therapeutic effect repeated itself after each treatment; time to ease in the itching and burning sensation (radiation burns; [5]): ~1 min; clinical outcome (rash; person two, wrist rash, allergic response to watch band, 50 μg/gr cream several times a day): a reduction in the redness and in the diameter of the spots; clinical outcome (rash; person, underarm rash, 50 μg/gr cream twice a day for three days): the redness began to decrease shortly after treatment, and after a few days completely disappeared; time until relief is felt (psoriasis; psoriasis in the anus, (500 μg/gr cream) once a day): 4 days; clinical outcome (psoriasis; psoriasis in the anus, (500 μg/gr cream) once a day, stopped several days, repeated for 4 days): the psoriasis disappeared; clinical outcome (psoriasis; psoriasis on hands, 500 μg/gr cream once a day): feels relief; the skin is pleasant feeling and not itchy; improvement as believed by the patient (psoriasis; psoriasis on hands, 500 μg/gr cream once a day, over 2 weeks): 20%; clinical outcome (psoriasis; severe psoriasis at various locations, 500 μg/gr cream): the itching ceased and the normal skin appearance returned; clinical outcome (itching; [6]): The rash disappeared after several hours; time to relief from itching (itching; [6]): ≤ 10 min; clinical outcome (itching; strong itching in lower limbs, 500 μg/gr cream as needed): immediate relief; clinical outcome (skin infection): a decrease in redness and the size of the spots
